In PMC8554203, “Inhibition of Bromodomain and Extra Terminal (BET) Domain Activity Modulates the IL-23R/IL-17 Axis and Suppresses Acute Graft-Versus-Host Disease” (Frontiers in Oncology, 2021):
Read-outs that look alike come from different tables or passages of the source.

Columns and labels:
BRD4 = molecular target: T1, BRD4 (Homo sapiens, UniProt O60885); assay: substrate binding (displacement) assay with engineered tandem bromodomain protein; conditions: read-out: PLX2853 / IC50 (μM) ^a
T1 construct: BRD4-BD12 (engineered protein containing both bromodomains)

BRD2 = molecular target: T2, BRD2 (Homo sapiens, UniProt P25440); assay: as above
T2 construct: BRD2-BD12 (engineered protein containing both bromodomains)
T2 sequence (P25440 74-453 limits assumed): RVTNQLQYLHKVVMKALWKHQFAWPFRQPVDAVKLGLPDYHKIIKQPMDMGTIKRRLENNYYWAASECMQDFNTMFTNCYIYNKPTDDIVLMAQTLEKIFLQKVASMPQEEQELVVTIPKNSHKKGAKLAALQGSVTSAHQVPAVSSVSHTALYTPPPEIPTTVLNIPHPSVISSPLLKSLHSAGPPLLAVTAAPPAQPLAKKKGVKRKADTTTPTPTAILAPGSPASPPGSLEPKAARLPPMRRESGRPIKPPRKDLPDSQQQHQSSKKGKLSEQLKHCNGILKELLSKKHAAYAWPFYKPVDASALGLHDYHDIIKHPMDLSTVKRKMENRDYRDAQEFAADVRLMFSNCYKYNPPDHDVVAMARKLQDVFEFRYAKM

IC50 (BRD4) [µM]	IC50 (BRD2; read-out: PLX2853 / IC50 (μM) ^a) [µM]	IC50 (BRD2) [µM]	SMILES
0.0043	0.0073	–	Cc1noc(C)c1-c1cnc2c(-c3ccc(C(=O)O)cc3)cn(C(C)(c3ccccn3)c3ccccn3)c2c1 [PLX2853]
–	–	0.052	Cc1noc(C)c1-c1cnc2c(-c3ccc(C(=O)O)cc3)cn([C@@H](C)c3ccccn3)c2c1 [PLX51107]
